From PubChem BioAssay (NCI)
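1) Cells in 96-well plates. 2) Compound, 48 h, 5 concentrations. 3) Linear interpolation between surrounding doses. 4) Unreached endpoint = highest concentration. Abbreviation: GI50, concentration required for 50% inhibition of growth. TGI: total growth inhibition.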

Tests used:
Test in all cases: NCI anticancer screen, dose series, 48 h
786-0 renal = system: 786-0 renal
A498 renal = system: A498 renal
A549 NSCLC = system: A549 NSCLC
ACHN renal = system: ACHN renal
BT-549 breast = system: BT-549 breast
CAKI-1 renal = system: CAKI-1 renal
CCRF-CEM leukemia = system: CCRF-CEM leukemia
COLO 205 colon = system: COLO 205 colon
DU-145 prostate = system: DU-145 prostate
EKVX NSCLC = system: EKVX NSCLC
HCC-2998 colon = system: HCC-2998 colon
HCT-116 colon = system: HCT-116 colon
HCT-15 colon = system: HCT-15 colon
HL-60(TB) leukemia = system: HL-60(TB) leukemia
HOP-62 NSCLC = system: HOP-62 NSCLC
HOP-92 NSCLC = system: HOP-92 NSCLC
HS 578T breast = system: HS 578T breast
HT29 colon = system: HT29 colon
IGROV1 ovarian = system: IGROV1 ovarian
K-562 leukemia = system: K-562 leukemia
KM12 colon = system: KM12 colon
M14 melanoma = system: M14 melanoma
MALME-3M melanoma = system: MALME-3M melanoma
MCF7 breast = system: MCF7 breast
MDA-MB-231 breast = system: MDA-MB-231 breast
MDA-MB-435 = system: MDA-MB-435
MOLT-4 leukemia = system: MOLT-4 leukemia
NCI-H226 lung = system: NCI-H226 lung
NCI-H23 lung = system: NCI-H23 lung
NCI-H460 lung = system: NCI-H460 lung
NCI-H522 lung = system: NCI-H522 lung
NCI/ADR-RES ovarian = system: NCI/ADR-RES ovarian
OVCAR-3 ovarian = system: OVCAR-3 ovarian
OVCAR-4 ovarian = system: OVCAR-4 ovarian
OVCAR-5 ovarian = system: OVCAR-5 ovarian
OVCAR-8 ovarian = system: OVCAR-8 ovarian
PC-3 prostate = system: PC-3 prostate
RPMI-8226 leukemia = system: RPMI-8226 leukemia
RXF 393 renal = system: RXF 393 renal
SF-268 CNS = system: SF-268 CNS
SF-295 CNS = system: SF-295 CNS
SF-539 CNS = system: SF-539 CNS
SK-MEL-2 melanoma = system: SK-MEL-2 melanoma
SK-MEL-28 melanoma = system: SK-MEL-28 melanoma
SK-MEL-5 melanoma = system: SK-MEL-5 melanoma
SK-OV-3 ovarian = system: SK-OV-3 ovarian
SN12C renal = system: SN12C renal
SNB-19 CNS = system: SNB-19 CNS
SNB-75 CNS = system: SNB-75 CNS
SR leukemia = system: SR leukemia
SW-620 colon = system: SW-620 colon
T-47D breast = system: T-47D breast
TK-10 renal = system: TK-10 renal
U251 CNS = system: U251 CNS
UACC-257 melanoma = system: UACC-257 melanoma
UACC-62 melanoma = system: UACC-62 melanoma
UO-31 renal = system: UO-31 renal

Molecule Cn1ccnc1C(=O)/C=C/c1ccc(NC(=O)Nc2ccccc2)cc1 has a GI50 (786-0 renal) of 19.1 µM, a TGI (786-0 renal) of 47.3 µM and a GI50 (A498 renal) of 21.3 µM. The TGI (A498 renal) was 65.6 µM, the GI50 (A549 NSCLC) was 21.8 µM and the TGI (A549 NSCLC) was > 100 µM. The GI50 (ACHN renal) was 23.1 µM, the TGI (ACHN renal) was 72 µM and the GI50 (BT-549 breast) was 13.6 µM. The TGI (BT-549 breast) was 29.9 µM, the GI50 (CAKI-1 renal) was 20.8 µM and the TGI (CAKI-1 renal) was 99.3 µM. For the same molecule, the GI50 (CCRF-CEM leukemia) was 21.5 µM, the TGI (CCRF-CEM leukemia) was > 100 µM and the GI50 (COLO 205 colon) was 16.9 µM. It also gave a TGI (COLO 205 colon) of 31.6 µM, a GI50 (DU-145 prostate) of 12.5 µM and a TGI (DU-145 prostate) of 32.5 µM. It also gave a GI50 (EKVX NSCLC) of 22.6 µM, a TGI (EKVX NSCLC) of 63.4 µM and a GI50 (HCC-2998 colon) of 14.7 µM. The TGI (HCC-2998 colon) was 28.6 µM, the GI50 (HCT-116 colon) was 13.3 µM and the TGI (HCT-116 colon) was 26.6 µM. The GI50 (HCT-15 colon) was 7.16 µM, the TGI (HCT-15 colon) was 27.2 µM and the GI50 (HL-60(TB) leukemia) was 15.6 µM. It also gave a TGI (HL-60(TB) leukemia) of 69.1 µM, a GI50 (HOP-62 NSCLC) of 24.1 µM and a TGI (HOP-62 NSCLC) of 69.2 µM. It also gave a GI50 (HOP-92 NSCLC) of 20.6 µM, a TGI (HOP-92 NSCLC) of 69.1 µM and a GI50 (HS 578T breast) of 33.7 µM. For the same molecule, the TGI (HS 578T breast) was > 100 µM, the GI50 (HT29 colon) was 15.9 µM and the TGI (HT29 colon) was 31 µM. The GI50 (IGROV1 ovarian) was 19.1 µM, the TGI (IGROV1 ovarian) was 64.1 µM and the GI50 (K-562 leukemia) was 8.29 µM. The TGI (K-562 leukemia) was > 100 µM, the GI50 (KM12 colon) was 18.1 µM and the TGI (KM12 colon) was 41.8 µM. It also gave a GI50 (M14 melanoma) of 20.8 µM, a TGI (M14 melanoma) of 58.5 µM and a GI50 (MALME-3M melanoma) of 18.3 µM. It also gave a TGI (MALME-3M melanoma) of 50.7 µM, a GI50 (MCF7 breast) of 15.6 µM and a TGI (MCF7 breast) of 86.3 µM. It also gave a GI50 (MDA-MB-231 breast) of 16.9 µM, a TGI (MDA-MB-231 breast) of 34 µM and a GI50 (MDA-MB-435) of 21.6 µM. It also gave a TGI (MDA-MB-435) of 58.3 µM, a GI50 (MOLT-4 leukemia) of 16.5 µM and a TGI (MOLT-4 leukemia) of 85.1 µM. The GI50 (NCI-H226 lung) was 22.9 µM, the TGI (NCI-H226 lung) was > 100 µM and the GI50 (NCI-H23 lung) was 16.1 µM. The TGI (NCI-H23 lung) was 37.3 µM, the GI50 (NCI-H460 lung) was 17.2 µM and the TGI (NCI-H460 lung) was 47.8 µM. The GI50 (NCI-H522 lung) was 13 µM, the TGI (NCI-H522 lung) was 27.3 µM and the GI50 (NCI/ADR-RES ovarian) was 29 µM. The TGI (NCI/ADR-RES ovarian) was > 100 µM, the GI50 (OVCAR-3 ovarian) was 29 µM and the TGI (OVCAR-3 ovarian) was > 100 µM. For the same molecule, the GI50 (OVCAR-4 ovarian) was 20.2 µM, the TGI (OVCAR-4 ovarian) was > 100 µM and the GI50 (OVCAR-5 ovarian) was 19.9 µM. The TGI (OVCAR-5 ovarian) was 55.1 µM, the GI50 (OVCAR-8 ovarian) was 25 µM and the TGI (OVCAR-8 ovarian) was > 100 µM. It also gave a GI50 (PC-3 prostate) of 18.4 µM, a TGI (PC-3 prostate) of 49.5 µM and a GI50 (RPMI-8226 leukemia) of 16 µM. It also gave a TGI (RPMI-8226 leukemia) of 54.8 µM, a GI50 (RXF 393 renal) of 12.7 µM and a TGI (RXF 393 renal) of 27 µM. The GI50 (SF-268 CNS) was 28.7 µM, the TGI (SF-268 CNS) was > 100 µM and the GI50 (SF-295 CNS) was 14.8 µM. For the same molecule, the TGI (SF-295 CNS) was 46.4 µM, the GI50 (SF-539 CNS) was 13.9 µM and the TGI (SF-539 CNS) was 28.5 µM. For the same molecule, the GI50 (SK-MEL-2 melanoma) was 16.8 µM, the TGI (SK-MEL-2 melanoma) was 36 µM and the GI50 (SK-MEL-28 melanoma) was 16.2 µM. The TGI (SK-MEL-28 melanoma) was 32.8 µM, the GI50 (SK-MEL-5 melanoma) was 15.7 µM and the TGI (SK-MEL-5 melanoma) was 29.4 µM. The GI50 (SK-OV-3 ovarian) was 32.5 µM, the TGI (SK-OV-3 ovarian) was > 100 µM and the GI50 (SN12C renal) was 14.9 µM. It also gave a TGI (SN12C renal) of 40.4 µM, a GI50 (SNB-19 CNS) of 16.7 µM and a TGI (SNB-19 CNS) of 42.8 µM. It also gave a GI50 (SNB-75 CNS) of 12.9 µM, a TGI (SNB-75 CNS) of 26 µM and a GI50 (SR leukemia) of 4.9 µM. For the same molecule, the TGI (SR leukemia) was 75.3 µM, the GI50 (SW-620 colon) was 18.7 µM and the TGI (SW-620 colon) was 54.3 µM. For the same molecule, the GI50 (T-47D breast) was 23.4 µM, the TGI (T-47D breast) was > 100 µM and the GI50 (TK-10 renal) was 29.8 µM. The TGI (TK-10 renal) was > 100 µM, the GI50 (U251 CNS) was 13.6 µM and the TGI (U251 CNS) was 29.6 µM. For the same molecule, the GI50 (UACC-257 melanoma) was 16.1 µM, the TGI (UACC-257 melanoma) was 38.8 µM and the GI50 (UACC-62 melanoma) was 15.3 µM. It also gave a TGI (UACC-62 melanoma) of 30.8 µM, a GI50 (UO-31 renal) of 14.3 µM and a TGI (UO-31 renal) of 29.4 µM.
